Source: US9163256B2, “Mutant receptors and their use in a nuclear receptor-based inducible gene expression system” (priority 2004, dated 2015)

Experiments:
Test in all cases: cell-based
CfEcR-DEF mutant V96S = CfEcR-DEF mutant V96S (Choristoneura fumiferana, UniProt O77255, V379S)
Summary of the method: (§1)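 Mutant CfEcR-DEF receptor and GAL4-driven luciferase reporter constructs transfected into mouse NIH3T3 cells with DMSO or ligand added; maintained 48 h at 37° C in 5% FBS, harvested 40 h after ligand addition. Dual-luciferase read-out; fold induction = RLU with ligand / RLU with DMSO.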

CfEcR-DEF mutant F109W = CfEcR-DEF mutant F109W (Choristoneura fumiferana, UniProt O77255, F392W)
Chain of CfEcR-DEF mutant F109W (O77255 entry or part of it F392W): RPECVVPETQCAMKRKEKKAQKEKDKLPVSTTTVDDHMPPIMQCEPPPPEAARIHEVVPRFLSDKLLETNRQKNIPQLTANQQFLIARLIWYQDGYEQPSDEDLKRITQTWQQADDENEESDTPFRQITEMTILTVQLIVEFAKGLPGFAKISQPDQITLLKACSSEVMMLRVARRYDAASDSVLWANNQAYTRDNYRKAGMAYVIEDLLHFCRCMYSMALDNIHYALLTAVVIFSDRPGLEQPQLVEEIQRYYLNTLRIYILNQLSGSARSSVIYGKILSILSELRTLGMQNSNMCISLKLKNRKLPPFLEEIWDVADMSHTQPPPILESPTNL
Chain of CfEcR-DEF mutant F109W (P28702 299-449, further chain): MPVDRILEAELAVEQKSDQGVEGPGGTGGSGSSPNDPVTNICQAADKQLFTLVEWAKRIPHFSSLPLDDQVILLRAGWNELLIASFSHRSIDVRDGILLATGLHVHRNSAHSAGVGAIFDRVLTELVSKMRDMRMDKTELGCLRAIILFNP
Summary of the method: as §1

CfEcR-DEF mutant M92L = CfEcR-DEF mutant M92L (Choristoneura fumiferana, UniProt O77255, M375L)
Chain of CfEcR-DEF mutant M92L (O77255 entry or part of it M375L): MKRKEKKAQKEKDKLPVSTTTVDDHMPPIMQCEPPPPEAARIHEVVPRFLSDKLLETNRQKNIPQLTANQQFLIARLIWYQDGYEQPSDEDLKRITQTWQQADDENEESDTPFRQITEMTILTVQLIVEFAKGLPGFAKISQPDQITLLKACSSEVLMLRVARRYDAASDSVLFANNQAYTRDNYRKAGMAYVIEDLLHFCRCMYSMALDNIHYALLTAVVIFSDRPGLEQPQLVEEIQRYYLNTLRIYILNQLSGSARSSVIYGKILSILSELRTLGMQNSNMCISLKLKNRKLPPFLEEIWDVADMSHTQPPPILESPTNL
Chain of CfEcR-DEF mutant M92L (P28702 299-449, further chain): as the sequence (P28702 299-449, further chain) above
Summary of the method: as §1

CfEcR-DEF mutant A110E = CfEcR-DEF mutant A110E (Choristoneura fumiferana, UniProt O77255, A393E)
Summary of the method: as §1

CfEcR-DEF mutant W238P = CfEcR-DEF mutant W238P (Choristoneura fumiferana, UniProt O77255, W521P)
Summary of the method: as §1

CfEcR-DEF mutant Y120W = CfEcR-DEF mutant Y120W (Choristoneura fumiferana, UniProt O77255, Y403W)
Chain of CfEcR-DEF mutant Y120W (O77255 entry or part of it Y403W): as the sequence (O77255 entry or part of it M375L) above, with L157M, Y185W counted along it
Chain of CfEcR-DEF mutant Y120W (P28702 299-449, further chain): as the sequence (P28702 299-449, further chain) above
Summary of the method: as §1

CfEcR-DEF mutant M54T = CfEcR-DEF mutant M54T (Choristoneura fumiferana, UniProt O77255, M337T)
Summary of the method: as §1

CfEcR-DEF mutant R95W = CfEcR-DEF mutant R95W (Choristoneura fumiferana, UniProt O77255, R378W)
Chain of CfEcR-DEF mutant R95W (O77255 entry or part of it R378W): as the sequence (O77255 entry or part of it M375L) above, with L157M, R160W counted along it
Chain of CfEcR-DEF mutant R95W (P28702 299-449, further chain): as the sequence (P28702 299-449, further chain) above
Summary of the method: as §1

CfEcR-DEF mutant L234I = CfEcR-DEF mutant L234I (Choristoneura fumiferana, UniProt O77255, L517I)
Summary of the method: as §1

CfEcR-DEF mutant L234M = CfEcR-DEF mutant L234M (Choristoneura fumiferana, UniProt O77255, L517M)
Summary of the method: as §1

CfEcR-DEF mutant T52L = CfEcR-DEF mutant T52L (Choristoneura fumiferana, UniProt O77255, T335L)
Summary of the method: as §1

CfEcR-DEF mutant V96W = CfEcR-DEF mutant V96W (Choristoneura fumiferana, UniProt O77255, V379W)
Chain of CfEcR-DEF mutant V96W (O77255 entry or part of it V379W): as the sequence (O77255 entry or part of it M375L) above, with L157M, V161W counted along it
Chain of CfEcR-DEF mutant V96W (P28702 299-449, further chain): as the sequence (P28702 299-449, further chain) above
Summary of the method: as §1

CfEcR-DEF mutant V96L = CfEcR-DEF mutant V96L (Choristoneura fumiferana, UniProt O77255, V379L)
Chain of CfEcR-DEF mutant V96L (O77255 entry or part of it V379L): as the sequence (O77255 entry or part of it M375L) above, with L157M, V161L counted along it
Chain of CfEcR-DEF mutant V96L (P28702 299-449, further chain): as the sequence (P28702 299-449, further chain) above
Summary of the method: as §1

[1] = target: CfEcR-DEF mutant N119F/V96T (Choristoneura fumiferana, UniProt O77255, N402F/V379T)
Chain of CfEcR-DEF mutant N119F/V96T (O77255 entry or part of it V379T/N402F): as the sequence (O77255 entry or part of it M375L) above, with L157M, V161T, N184F counted along it
Chain of CfEcR-DEF mutant N119F/V96T (P28702 299-449, further chain): as the sequence (P28702 299-449, further chain) above
Summary of the method: as §1

CfEcR-DEF mutant M54W = CfEcR-DEF mutant M54W (Choristoneura fumiferana, UniProt O77255, M337W)
Summary of the method: as §1

CfEcR-DEF mutant A110W = CfEcR-DEF mutant A110W (Choristoneura fumiferana, UniProt O77255, A393W)
Summary of the method: as §1

CfEcR-DEF mutant L132V = CfEcR-DEF mutant L132V (Choristoneura fumiferana, UniProt O77255, L415V)
Summary of the method: as §1

[2] = target: CfEcR-DEF mutant V128F/A110P (Choristoneura fumiferana, UniProt O77255, A393P/V411F)
Summary of the method: as §1

CfEcR-DEF mutant I51L = CfEcR-DEF mutant I51L (Choristoneura fumiferana, UniProt O77255, I334L)
Chain of CfEcR-DEF mutant I51L (O77255 entry or part of it I334L): as the sequence (O77255 entry or part of it F392W) above, with I128L, W186F counted along it
Chain of CfEcR-DEF mutant I51L (P28702 299-449, further chain): as the sequence (P28702 299-449, further chain) above
Summary of the method: as §1

CfEcR-DEF mutant F109L = CfEcR-DEF mutant F109L (Choristoneura fumiferana, UniProt O77255, F392L)
Summary of the method: as §1

CfEcR-DEF mutant W238Y = CfEcR-DEF mutant W238Y (Choristoneura fumiferana, UniProt O77255, W521Y)
Summary of the method: as §1

[3] = NIH3T3, 40 h, read-out: Rel Max FI
[4] = NIH3T3, mouse, 40 h, read-out: GS-E ligand max FI (relative to DMSO)

Chain of CfEcR-DEF mutant V96S (O77255 entry or part of it V379S): as the sequence (O77255 entry or part of it M375L) above, with L157M, V161S counted along it
Chain of CfEcR-DEF mutant V96S (P28702 299-449, further chain): as the sequence (P28702 299-449, further chain) above

SMILES: CCc1c(OC)cccc1C(=O)NN(C(=O)c1cc(C)cc(C)c1)C(C)(C)C [RG-102240, N-(2-ethyl-3-methoxybenzoyl)-N′-(3,5-dimethylbenzoyl)-N′-tert-butylhydrazine]
- EC50 (CfEcR-DEF mutant V96S): 1140 nM
- Emax (CfEcR-DEF mutant V96S; [3]): 100%
- maximal fold induction (CfEcR-DEF mutant V96S; [4]): 1830
- Concentration (mM) at max FI (CfEcR-DEF mutant V96S; mutant V96S, GS-E ligand): 33.3 mM
- EC50 (CfEcR-DEF mutant F109W): 610 nM
- Emax (CfEcR-DEF mutant F109W; [3]): 100%
- maximal fold induction (CfEcR-DEF mutant F109W; [4]): 3060
- Concentration (mM) at max FI (CfEcR-DEF mutant F109W; mutant F109W, GS-E ligand): 10.00 mM
- EC50 (CfEcR-DEF mutant M92L): ~8000 nM
- Emax (CfEcR-DEF mutant M92L; [3]): 100%
- maximal fold induction (CfEcR-DEF mutant M92L; [4]): 1200
- Concentration (mM) at max FI (CfEcR-DEF mutant M92L; mutant M92L, GS-E ligand): 33.30 mM
- EC50 (CfEcR-DEF mutant A110E): 590 nM
- Emax (CfEcR-DEF mutant A110E; [3]): 100%
- maximal fold induction (CfEcR-DEF mutant A110E; [4]): 4930
- Concentration (mM) at max FI (CfEcR-DEF mutant A110E; mutant A110E, GS-E ligand): 10.00 mM
- EC50 (CfEcR-DEF mutant W238P): ~400 nM
- Emax (CfEcR-DEF mutant W238P; [3]): 100%
- maximal fold induction (CfEcR-DEF mutant W238P; [4]): 4810
- Concentration (mM) at max FI (CfEcR-DEF mutant W238P; mutant W238P, GS-E ligand): 10 mM
- EC50 (CfEcR-DEF mutant Y120W): 4210 nM
- Emax (CfEcR-DEF mutant Y120W; [3]): 100%
- maximal fold induction (CfEcR-DEF mutant Y120W; [4]): 1890
- EC50 (CfEcR-DEF mutant M54T): 80 nM
- Emax (CfEcR-DEF mutant M54T; [3]): 100%
- maximal fold induction (CfEcR-DEF mutant M54T; [4]): 4460
- Concentration (mM) at max FI (CfEcR-DEF mutant M54T; mutant M54T, GS-E ligand): 10.00 mM
- EC50 (CfEcR-DEF mutant R95W): ~7000 nM
- Emax (CfEcR-DEF mutant R95W; [3]): 100%
- maximal fold induction (CfEcR-DEF mutant R95W; [4]): 1820
- Concentration (mM) at max FI (CfEcR-DEF mutant R95W; mutant R95W, GS-E ligand): 33.30 mM
- EC50 (CfEcR-DEF mutant L234I): 770 nM
- Emax (CfEcR-DEF mutant L234I; [3]): 100%
- maximal fold induction (CfEcR-DEF mutant L234I; [4]): 2650
- Concentration (mM) at max FI (CfEcR-DEF mutant L234I; mutant L234I, GS-E ligand): 10 mM
- EC50 (CfEcR-DEF mutant L234M): 1430 nM
- Emax (CfEcR-DEF mutant L234M; [3]): 100%
- maximal fold induction (CfEcR-DEF mutant L234M; [4]): 4580
- Concentration (mM) at max FI (CfEcR-DEF mutant L234M; mutant L234M, GS-E ligand): 33.30 mM
- EC50 (CfEcR-DEF mutant T52L): ~500 nM
- Emax (CfEcR-DEF mutant T52L; [3]): 100%
- maximal fold induction (CfEcR-DEF mutant T52L; [4]): 1130
- Concentration (mM) at max FI (CfEcR-DEF mutant T52L; mutant T52L, GS-E ligand): 33.3 mM
- EC50 (CfEcR-DEF mutant V96W): ~1000 nM
- Emax (CfEcR-DEF mutant V96W; [3]): 100%
- maximal fold induction (CfEcR-DEF mutant V96W; [4]): 615
- Concentration (mM) at max FI (CfEcR-DEF mutant V96W; mutant V96W, GS-E ligand): 33.3 mM
- EC50 (CfEcR-DEF mutant V96L): ~1000 nM
- Emax (CfEcR-DEF mutant V96L; [3]): 100%
- maximal fold induction (CfEcR-DEF mutant V96L; [4]): 4380
- Concentration (mM) at max FI (CfEcR-DEF mutant V96L; mutant V96L, GS-E ligand): 10 mM
- EC50 [1]: ~8000 nM
- Emax [1, 3]: 100%
- maximal fold induction [1, 4]: 1740
- Concentration (mM) at max FI ([1]; mutant N119F/V96T, GS-E ligand): 33.3 mM
- EC50 (CfEcR-DEF mutant M54W): 1170 nM
- Emax (CfEcR-DEF mutant M54W; [3]): 100%
- maximal fold induction (CfEcR-DEF mutant M54W; [4]): 1680
- Concentration (mM) at max FI (CfEcR-DEF mutant M54W; mutant M54W, GS-E ligand): 0.01 mM
- EC50 (CfEcR-DEF mutant A110W): 1370 nM
- Emax (CfEcR-DEF mutant A110W; [3]): 100%
- maximal fold induction (CfEcR-DEF mutant A110W; [4]): 5210
- Concentration (mM) at max FI (CfEcR-DEF mutant A110W; mutant A110W, GS-E ligand): 10.00 mM
- EC50 (CfEcR-DEF mutant L132V): 2320 nM
- Emax (CfEcR-DEF mutant L132V; [3]): 100%
- maximal fold induction (CfEcR-DEF mutant L132V; [4]): 2130
- Concentration (mM) at max FI (CfEcR-DEF mutant L132V; mutant L132V, GS-E ligand): 0.01 mM
- EC50 [2]: ~8000 nM
- Emax [2, 3]: 100%
- maximal fold induction [2, 4]: 2960
- Concentration (mM) at max FI ([2]; mutant V128F/A110P, GS-E ligand): 33.30 mM
- EC50 (CfEcR-DEF mutant I51L): 3200 nM
- Emax (CfEcR-DEF mutant I51L; [3]): 100%
- maximal fold induction (CfEcR-DEF mutant I51L; [4]): 2480
- Concentration (mM) at max FI (CfEcR-DEF mutant I51L; mutant I51L, GS-E ligand): 33.30 mM
- EC50 (CfEcR-DEF mutant F109L): ~2000 nM
- Emax (CfEcR-DEF mutant F109L; [3]): 100%
- maximal fold induction (CfEcR-DEF mutant F109L; [4]): 20
- Concentration (mM) at max FI (CfEcR-DEF mutant F109L; mutant F109L, GS-E ligand): 33.30 mM
- EC50 (CfEcR-DEF mutant W238Y): ~13000 nM
- Emax (CfEcR-DEF mutant W238Y; [3]): 100%
- maximal fold induction (CfEcR-DEF mutant W238Y; [4]): 11
- Concentration (mM) at max FI (CfEcR-DEF mutant W238Y; mutant W238Y, GS-E ligand): 0.0333 mM
